Reference: patent publication US20230357179A1, “RAF KINASE INHIBITORS AND METHODS OF USE THEREOF” (Deciphera Pharmaceuticals, LLC, priority 2021, published 2023)

How the values were obtained:
A-Raf kinase = target: T1, A-Raf kinase (Homo sapiens, UniProt P10398, Y301D/Y302D); assay: Biochemical assay for A-Raf.2 (coupled pyruvate kinase/lactate dehydrogenase); details: read-out: ARAF.2 IC50
T1 construct: purchased Sigma
Experimental: Biochemical Assay for A-Raf.2
Activity of A-Raf kinase (SEQ. ID No: 1) was determined spectroscopically using a coupled pyruvate kinase/lactate dehydrogenase assay that continuously monitors the ATP hydrolysis-dependent oxidation of NADH (e.g., Schindler et al., Science, 2000, 289, 1938-1942). Assays were conducted in 384-well plates (25 μL final volume) using 20 nM A-Raf (Eurofins), 1.5 units pyruvate kinase, 2.1 units lactate dehydrogenase, 1 mM phosphoenol pyruvate, 0.7 mM NADH, 100 nM MEK (SignalChem), and 1 mM ATP in assay buffer (100 mM Tris, pH 7.5, 15 mM MgCl2, 0.5 mM DTT, 0.1% octyl-glucoside, 0.002% (w/v) BSA, and 0.002% Triton X-100). Inhibition of A-Raf was measured by adding serial diluted test compound (final assay concentration of 1% DMSO). A decrease in absorption at 340 nm was monitored hourly for 4 h at 30° C. on a multi-mode microplate reader (BioTek). The reaction rate was calculated using the 3 to 4 h time frame. The reaction rate at each concentration of compound was converted to percent inhibition using controls (i.e., reaction with no test compound and reaction with a known inhibitor) and IC50 values were calculated by fitting a four-parameter sigmoidal curve to the data using Prism (GraphPad software).

A375 cells = assay: A375 cell proliferation assay (2), resazurin, 384-well; type: cell-based; details: Homo sapiens, A-375, inhibition of cell proliferation, 67-72 h
Experimental: A375 Cell Proliferation Assay (2)
A375 cells (catalog (#CRL-1619) are obtained from the American Type Culture Collect (ATTC, Manassas, VA). Briefly, cells were grown in DMEM High Glucose supplemented with 10% characterized fetal bovine serum (Invitrogen, Carlsbad, CA) and 1% Penicillin/Streptomycin/L-Glutamine at 37° C., 5% CO2, and 95% humidity. Cells are expanded until reaching 70-95% confluency at which point they are sub-cultured or harvested for assay use. Using the Beckman Coulter Echo 650, a serial dilution of test compound is dispensed into a 384-well black clear bottom plate in triplicate. Six hundred twenty-five cells are added per well in 50 μL complete growth medium in the 384-well plate. Plates are incubated for 67-72 h at 37° C., 5% CO2, and 95% humidity. At the end of the incubation, 10 μL of a 440 μM solution of resazurin (Sigma, St. Louis, MO) in PBS is added to each well of the plate and plates are incubated for an additional 3-6 h at 37° C., 5% CO2, and 95% humidity. Plates are read on a Synergy2 or equivalent reader (Biotek, Winooski VT) using an excitation of 540 nm and an emission of 600 nm. Data is analyzed using Prism software (GraphPad, San Diego, CA) to calculate IC50 values.

WM3928 cells = assay: WM3928 cell proliferation assay (2), resazurin, 384-well; type: cell-based; details: inhibition of cell proliferation, 67-72 hours
Experimental: WM3928 Cell Proliferation Assay (2)
WM3928 cells (#WM3928-01-0001) are obtained from Rockland Immunochemicals Inc (Gilbertsville, PA). Briefly, cells were grown in MCDB 153 medium (Sigma, #M7403, St. Louis, MO) supplemented with 20% Leibovitz's L-15 (ThermoFisher #11415-064, Waltham, MA), 2% heat inactivated fetal bovine serum (ThermoFisher, #A3840001, Waltham, MA), 5 μg/mL Insulin (Bovine Pancreas) (Sigma, #I0516, St. Louis, MO), 1.68 mM Calcium Chloride (Sigma, #C-34006, St. Louis, MO) and 1% Penicillin/Streptomycin/L-Glutamine (ThermoFisher #10378016, Waltham, MA) at 37° C., 5% CO2, and 95% humidity. Cells are expanded until reaching 70-95% confluency at which point they are sub-cultured or harvested for assay use. Using the Beckman Coulter Echo 650, a serial dilution of test compound is dispensed into a 384-well black clear bottom plate in triplicate. Seven hundred fifty cells are added per well in 50 μL complete growth medium in the 384-well plate. Plates are incubated for 67-72 hours at 37° C., 5% CO2, and 95% humidity. At the end of the incubation, 10 μL of a 440 μM solution of resazurin (Sigma, #199303, St. Louis, MO) in PBS is added to each well of the plate and plates are incubated for an additional 3-6 hours at 37° C., 5% CO2, and 95% humidity. Plates are read on a Synergy2 or equivalent reader (Biotek, Winooski VT) using an excitation of 540 nm and an emission of 600 nm. Data is analyzed using Prism software (GraphPad, San Diego, CA) to calculate IC50 values.

C-Raf kinase = target: T2, C-Raf kinase (Homo sapiens, UniProt P04049, Y340D/Y341D); assay: Biochemical assay for C-Raf.1 (coupled pyruvate kinase/lactate dehydrogenase); details: read-out: CRAF.1 IC50
T2 construct: Y340D,; GST (N); purchased Sigma
Procedure, shortened: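 NADH depletion at 340 nm monitored continuously for 6 h at 30° C, with rates taken over 4–5 h. The coupled pyruvate kinase/lactate dehydrogenase reaction used 1 mM ATP, 30.1 nM MEK substrate and 0.43 nM kinase at pH 7.5. IC50 was fitted sigmoidally from percent inhibition of serially diluted compound.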

T1 sequence (P10398 with tags, fused parts or gaps Y301D/Y302D): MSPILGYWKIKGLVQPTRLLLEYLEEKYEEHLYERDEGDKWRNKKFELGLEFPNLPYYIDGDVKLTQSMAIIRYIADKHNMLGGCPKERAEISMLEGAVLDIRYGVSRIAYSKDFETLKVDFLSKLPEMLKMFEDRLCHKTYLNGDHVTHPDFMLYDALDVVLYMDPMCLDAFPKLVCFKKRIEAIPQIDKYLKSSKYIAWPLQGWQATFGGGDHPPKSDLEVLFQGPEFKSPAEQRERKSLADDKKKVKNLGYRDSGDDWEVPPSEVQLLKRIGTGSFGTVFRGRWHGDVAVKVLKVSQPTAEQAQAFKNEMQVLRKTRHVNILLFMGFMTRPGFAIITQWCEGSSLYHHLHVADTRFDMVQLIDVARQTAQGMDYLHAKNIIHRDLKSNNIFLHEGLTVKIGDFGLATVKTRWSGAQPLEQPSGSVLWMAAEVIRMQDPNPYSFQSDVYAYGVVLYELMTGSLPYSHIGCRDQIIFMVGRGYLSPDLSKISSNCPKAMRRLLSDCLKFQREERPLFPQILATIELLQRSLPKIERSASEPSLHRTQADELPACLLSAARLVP
T2 sequence (P04049 307-648 Y340D/Y341D): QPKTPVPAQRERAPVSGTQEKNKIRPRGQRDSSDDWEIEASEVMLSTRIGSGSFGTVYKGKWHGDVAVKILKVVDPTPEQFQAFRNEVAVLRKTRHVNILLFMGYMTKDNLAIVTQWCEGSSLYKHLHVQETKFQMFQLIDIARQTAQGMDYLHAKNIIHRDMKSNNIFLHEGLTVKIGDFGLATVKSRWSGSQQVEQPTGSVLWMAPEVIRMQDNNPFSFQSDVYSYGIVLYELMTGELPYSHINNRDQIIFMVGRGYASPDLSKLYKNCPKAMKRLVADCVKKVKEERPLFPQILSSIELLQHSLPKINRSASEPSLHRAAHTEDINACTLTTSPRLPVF

Row | IC50 (A-Raf kinase) [nM] | IC50 (A375 cells) [nM] | IC50 (C-Raf kinase) [nM] | Structure (SMILES) | IC50 (WM3928 cells) [nM]
1 | > 1000 | 100 to 500 | – | CNC(=O)c1cc(-c2cncc(-c3cc(NC(=O)N4CC[C@H](C(C)C)C4)ccc3C)c2)ccn1 [Example 229] | 100 to 500
2 | – | – | ≤ 100 | COC(C)(C)CCNC(=O)Nc1cc(-c2cc(OCCO)nc(-c3ccnc4[nH]ccc34)c2)c(C)cc1F [Example 90] | –
3 | – | – | > 1000 | Cc1cc(F)c(NC(=O)NCC[C@@H]2CCO2)cc1-c1cc(OCCO)nc(-c2ccnc3[nH]ncc23)c1 [Example 89] | –
4 | – | – | ≤ 100 | COC(C)(C)CCNC(=O)Nc1cc(-c2cc(OCCO)nc(-c3ccnc4[nH]ncc34)c2)c(C)cc1F [Example 91] | –
5 | > 1000 | 1000 to 10000 | – | CNC(=O)c1cc(-c2cncc(-c3cc(NC(=O)N4CC[C@H](C(F)(F)F)C4)ccc3C)c2)ccn1 [Example 228] | 100 to 500
6 | 100 to 500 | – | – | COC(=O)Nc1cc(-c2cncc(-c3cc(NC(=O)N4CC[C@H](C(F)(F)F)C4)ccc3C)c2)ncn1 [Example 224] | –
7 | ≤ 100 | 1000 to 10000 | – | Cc1ccc(NC(=O)N2CC[C@H](C)C2)cc1-c1cncc(-c2cc(NC(=O)C3CC3)ncn2)c1 [Example 227] | 100 to 500
8 | – | – | 100 to 500 | Cc1cc(F)c(NC(=O)N2CCC(C)(C#N)CC2)cc1-c1cc(OCCO)nc(-c2ccnc3[nH]ncc23)c1 [Example 92] | –
9 | – | – | 100 to 500 | Cc1cc(F)c(NC(=O)N[C@@H]2CC[C@H](F)C2)cc1-c1cc(OCCO)nc(-c2ccnc3[nH]ncc23)c1 [Example 88] | –
10 | – | – | ≤ 100 | Cc1cc(F)c(NC(=O)NCCC2(C)CC2)cc1-c1cc(OCCO)nc(-c2ccnc3[nH]ncc23)c1 [Example 87] | –
11 | > 1000 | – | – | CNC(=O)c1cc(-c2cc(-c3cc(NC(=O)N4CC[C@H](C(F)(F)F)C4)ccc3C)ccn2)ccn1 [Example 215] | –
12 | > 1000 | 100 to 500 | – | CNC(=O)c1cc(-c2cc(-c3cc(NC(=O)N4CC[C@H](C(C)C)C4)ccc3C)ccn2)ccn1 [Example 225] | 100 to 500
13 | > 1000 | 1000 to 10000 | – | CNC(=O)c1cc(-c2cncc(-c3cc(NC(=O)N4CC[C@H](C(F)(F)F)C4)ccc3C)c2)ncn1 [Example 220] | 500 to 1000
14 | > 1000 | 500 to 1000 | – | CNC(=O)c1cc(-c2cncc(-c3cc(NC(=O)N4CC[C@H](C(C)C)C4)ccc3C)c2)ncn1 [Example 226] | 100 to 500
15 | – | – | ≤ 100 | COC(=O)Nc1cc(-c2cccc(-c3cc(NC(=O)NCCC(C)(C)OC)c(F)cc3C)c2)ccn1 [Example 85] | –
